{"source": "patent US20170143712A1", "about": "“Methods of Treating Cancers, Immune and Autoimmune Diseases, and Inflammatory Diseases Based on BTK Occupancy and BTK Resynthesis Rate” (Acerta Pharma B.V., priority 2014, published 2017)", "test_system": "established type II collagen-induced arthritis (CIA) in DBA/1 mice", "experiment": "Mouse established CIA, dosing from arthritis day 8, QD or BID (Example 11)", "type": "in vivo", "details": "for AUC (All Paws) - Corrected for Initial Score / Change in Body Weight (g) Days 1-19 / Histopathology Summed Score Knees / Histopathology Summed Score Paws / Histopathology Summed Score Six-Joints / Paw Score AUC (All Paws): mean(SE)", "source_text": "A study was designed to determine the efficacy of a covalently acting BTK inhibitor, Formula (II) in inhibiting acute inflammation, pannus formation, cartilage destruction, and bone resorption associated with established type II collagen-induced arthritis (CIA) in DBA/1 mice. Immunization with heterologous type II collagen (CII) induces arthritis in mice of the DBA/1 strain, which is genetically susceptible to this disease. To develop an experimental model of autoimmunity more adequate for the study of human rheumatoid arthritis (RA), male DBA/1 mice were injected intradermally (ID) with bovine type II collagen to induce arthritis as reported by Trentham et al (Trentham D E, Townes A S, Kang A H Autoimmunity to type II collagen: an experimental model of arthritis. J. Exper. Med. 1977, 146:857-868) and Bendele A (Bendele A, Animal models of rheumatoid arthritis. J. Musculoskelet. Neuronal Interact. 2001, 1(4):377-85).\nFollowing acclimatization, 6-7 week old male DBA/1 mice (n=10/group for arthritis) were immunized at the base of the tail, with 150 μL of Freund's Complete Adjuvant (Difco, Detroit, Mich.) containing 1 mg/mL bovine type II collagen by intradermal injection. Immunizations were performed day 0 and again on day 21. On study days 25-26, on day 8 following onset of arthritis, the mice were randomized into treatment groups. […] Dosing began on arthritis day 8 by oral gavage. Groups were treated with vehicle (0.4% HPMC, 0.2% Tween 80), Formula (II) at 25 mg/kg QD, Formula (II) at 12.5 mg/kg BID, or the reference compound dexamethasone (Dex) at 0.2 mg/kg QD. These animals were fasted overnight on arthritis day 20 (13 days after enrollment) prior to necropsy on arthritis day 21. Clinical scores were given for each of the paws (right front, left front, right rear, left rear) on arthritis days 1-21.\nEfficacy evaluation was based on animal body weights, clinical arthritis scores, arthritis scores expressed as area under the curve (AUC), and histopathology on fore paws, hind paws, and knees. Histopathology results were expressed as 4 paws, knees only, or 6 joints (knees included). Day 19 was used as the endpoint for analysis of body weight change since the male DBA/1 mice were fasted overnight prior to necropsy on day 21.\nNecropsies were conducted on fasted mice and terminal serum, fore paws, hind paws, and knees were collected into 10% neutral buffered formalin (NBF) for microscopy. Spleens were harvested and weighed."}
{"smiles": "CC#CC(=O)N1CCC[C@H]1c1nc(-c2ccc(C(=O)Nc3ccccn3)cc2)c2c(N)nccn12", "note": "[Formula (II), (S)-4-(8-amino-3-(1-(but-2-ynoyl)pyrrolidin-2-yl)imidazo[1,5-a]pyrazin-1-yl)-N-(pyridin-2-yl)benzamide]", "values": [{"measurement": "Clinical arthritis score AUC (d8-d21), reduction vs vehicle controls", "setting": "12.5 mg/kg BID", "result": 59, "unit": "%"}, {"measurement": "absolute spleen weights, reduction vs vehicle controls", "setting": "12.5 mg/kg BID", "result": 64, "unit": "%"}, {"measurement": "knee bone resorption, reduction vs vehicle controls", "setting": "12.5 mg/kg BID", "result": 78, "unit": "%"}, {"measurement": "knee inflammation, reduction vs vehicle controls", "setting": "12.5 mg/kg BID", "result": 49, "unit": "%"}, {"measurement": "knee pannus formation, reduction vs vehicle controls", "setting": "12.5 mg/kg BID", "result": 80, "unit": "%"}, {"measurement": "six joint histopathology, reduction of summed scores", "setting": "12.5 mg/kg BID", "result": 53, "unit": "%"}, {"measurement": "summed knee scores, reduction vs vehicle controls", "setting": "12.5 mg/kg BID", "result": 45, "unit": "%"}, {"measurement": "arthritis scores measured daily vs vehicle controls", "setting": "12.5 mg/kg BID, p<0.05 on days 9-21", "result": "significantly reduced toward normal"}, {"measurement": "AUC (All Paws) - Corrected for Initial Score", "setting": "12.5 mg/kg PO BID", "result": "*−23.05(2.58)"}, {"measurement": "Change in Body Weight (g) Days 1-19", "setting": "12.5 mg/kg PO BID", "result": "†0.64(0.69) g"}, {"measurement": "Histopathology Summed Score Knees", "setting": "12.5 mg/kg PO BID", "result": "*6.73(0.60)"}, {"measurement": "Histopathology Summed Score Paws", "setting": "12.5 mg/kg PO BID", "result": "*7.49(1.03)"}, {"measurement": "Histopathology Summed Score Six-Joints", "setting": "12.5 mg/kg PO BID", "result": "*7.23(0.77)"}, {"measurement": "Paw Score AUC (All Paws)", "setting": "12.5 mg/kg PO BID", "result": "*22.45(2.68)"}, {"measurement": "AUC (All Paws) - Corrected for Initial Score", "setting": "25 mg/kg PO QD", "result": "*−24.48(3.85)"}, {"measurement": "Change in Body Weight (g) Days 1-19", "setting": "25 mg/kg PO QD", "result": "2.37(0.28) g"}, {"measurement": "Histopathology Summed Score Knees", "setting": "25 mg/kg PO QD", "result": "*6.00(0.76)"}, {"measurement": "Histopathology Summed Score Paws", "setting": "25 mg/kg PO QD", "result": "*7.11(0.98)"}, {"measurement": "Histopathology Summed Score Six-Joints", "setting": "25 mg/kg PO QD", "result": "*6.74(0.80)"}, {"measurement": "Paw Score AUC (All Paws)", "setting": "25 mg/kg PO QD", "result": "*23.63(3.37)"}, {"measurement": "Clinical arthritis score AUC (d8-d21), reduction vs vehicle controls", "setting": "25 mg/kg QD", "result": 56, "unit": "%"}, {"measurement": "knee bone resorption, reduction vs vehicle controls", "setting": "25 mg/kg QD", "result": 82, "unit": "%"}, {"measurement": "knee cartilage damage, reduction vs vehicle controls", "setting": "25 mg/kg QD", "result": 28, "unit": "%"}, {"measurement": "knee inflammation, reduction vs vehicle controls", "setting": "25 mg/kg QD", "result": 53, "unit": "%"}, {"measurement": "knee pannus formation, reduction vs vehicle controls", "setting": "25 mg/kg QD", "result": 82, "unit": "%"}, {"measurement": "six joint histopathology, reduction of summed scores", "setting": "25 mg/kg QD", "result": 56, "unit": "%"}, {"measurement": "summed knee scores, reduction vs vehicle controls", "setting": "25 mg/kg QD", "result": 51, "unit": "%"}, {"measurement": "tolerability", "setting": "25 mg/kg QD or 12.5 mg/kg BID, DBA/1 mice", "result": "well tolerated"}, {"measurement": "arthritis scores measured daily vs vehicle controls", "setting": "25 mg/kg QD, p<0.05 on days 11-21", "result": "significantly reduced toward normal"}]}
